System: patients with negative symptoms of schizophrenia
Assay: Study #2 (MIN-101C07): Personal and Social Performance (PSP)
Assay type: in vivo, human
Set-up: key to PSP total score, LS mean difference vs placebo in change from Baseline / Mean change in PSP Total score from Active Baseline / Change from Baseline LS Mean: PSP Total Score (ITT) / Change from Baseline LS Mean: PSP Total Score (mITT): PSP Total score points (1–100 scale, higher = better functioning)
Settings: for Change from Baseline LS Mean: PSP Total Score (ITT) / Change from Baseline LS Mean: PSP domain Disturbing and Aggressive Behaviors / Change from Baseline LS Mean: PSP domain Personal and Social Relationships / Change from Baseline LS Mean: PSP domain Self-Care / Change from Baseline LS Mean: PSP domain Socially Useful Activities / Effect Size (Cohen's d) vs Placebo: PSP Total Score (ITT) / Effect Size (Cohen's d) vs Placebo: PSP domain Disturbing and Aggressive Behaviors / Effect Size (Cohen's d) vs Placebo: PSP domain Personal and Social Relationships / Effect Size (Cohen's d) vs Placebo: PSP domain Self-Care / Effect Size (Cohen's d) vs Placebo: PSP domain Socially Useful Activities: ITT; for Mean change in PSP Total score from Active Baseline: Week 52, OL
Source text: The PSP is a validated clinician-rated scale intended to reflect real-life situations that measures personal and social functioning in 4 domains: (a) socially useful activities, (b) personal and social relationships, (c) self-care, and (d) disturbing and aggressive behaviors. The score is based on the assessment of a patient's performance in the 4 domains. The PSP Total score is a single measurement of functioning ranging from 1 to 100, where a higher score represents better functioning. A score of 91 to 100 indicates excellent functioning in all 4 main areas; the patient is held in high consideration for their good qualities, copes adequately with life problems, and is involved in a wide range of interests and activities. A score of 1 to 10 indicates a lack of autonomy in basic functioning with extreme behaviors but without survival risk (score 6 to 10) or with survival risk (score 1 to 5). […] Review of the relevant scientific literature and the analysis of the psychometric properties of the 4 domains that result in the generation of the PSP Total score were supportive of the appropriateness and cross-cultural applicability of the use of the PSP in drug development for the indication of negative symptoms of schizophrenia The PSP was assessed at the timepoints described in Table 6. The changes from Baseline in the PSP Total score and individual domain scores after 12 weeks of treatment were exploratory efficacy endpoints in Study MIN-101C03, and the Total score was the key secondary efficacy endpoint and the PSP domain scores were exploratory endpoints in Study MIN-101C07.
Study #2 (also referred to as “MIN101C07”) was a Phase 3, randomized, DB, placebo-controlled, parallel-group 12-week study to evaluate the efficacy and safety of Roluperidone in patients ≥18 years to ≤55 years with negative symptoms of schizophrenia, followed by a 40-week OL extension. The study consisted of a pretreatment screening period of up to 28 days (including an antipsychotic medication washout period), a 12-week, DB, placebo-controlled period, and a 40-week OL period. Eligible patients (with moderate to severe negative symptoms of schizophrenia and stable positive symptoms but without severe symptoms of suspiciousness, agitation, hostility, uncooperativeness, or poor impulse control) were randomized 1:1:1 to receive Roluperidone 32 mg QD, Roluperidone 64 mg QD (GR01/B formulation, see U.S. Pat. No. 11,464,744), or placebo, orally, for 12 weeks. […] During the 40-week OL treatment extension, patients who were initially randomized to Roluperidone 32 mg or 64 mg continued treatment with the same dose, while patients who were initially randomized to placebo crossed over to Roluperidone 32 mg or 64 mg in a 1:1 ratio.

## 1H-Isoindol-1-one,2-[ [1-[2-(4-fluorophenyl)-2-oxoethyl]-4-piperidinyl]methyl]-2,3-dihydro-, hydrochloride, hydrate (1:1:2) [Roluperidone]
32 mg QD, Week 12 DB
  Effect Size (Cohen's w) vs Placebo: 7-Point improvement in PSP Total Score responders: 0.03
  Effect Size (Cohen's w) vs Placebo: 10-Point improvement in PSP Total Score responders: 0.01
  Number of Patients with 7-Point improvement in PSP Total Score at Week 12: 37/116
  Number of Patients with 10-Point improvement in PSP Total Score at Week 12: 26/116
  Patients with 7-Point improvement in PSP Total Score at Week 12 (%): (32%)
  Patients with 10-Point improvement in PSP Total Score at Week 12 (%): (22%)
  Change from Baseline LS Mean: PSP Total Score (ITT): 4.5
  Change from Baseline LS Mean: PSP domain Disturbing and Aggressive Behaviors: 0.0
  Change from Baseline LS Mean: PSP domain Personal and Social Relationships: −0.4
  Change from Baseline LS Mean: PSP domain Self-Care: −0.4
  Change from Baseline LS Mean: PSP domain Socially Useful Activities: −0.3
  Effect Size (Cohen's d) vs Placebo: PSP Total Score (ITT): 0.07
  Effect Size (Cohen's d) vs Placebo: PSP domain Disturbing and Aggressive Behaviors: 0.00
  Effect Size (Cohen's d) vs Placebo: PSP domain Personal and Social Relationships: 0.15
  Effect Size (Cohen's d) vs Placebo: PSP domain Self-Care: 0.15
  Effect Size (Cohen's d) vs Placebo: PSP domain Socially Useful Activities: 0.02
  Change from Baseline LS Mean: PSP Total Score (mITT): 4.4
  Effect Size (Cohen's d) vs Placebo: PSP Total Score (mITT): 0.07
64 mg QD, Week 12 DB
  Effect Size (Cohen's w) vs Placebo: 7-Point improvement in PSP Total Score responders: 0.13
  Effect Size (Cohen's w) vs Placebo: 10-Point improvement in PSP Total Score responders: 0.10
  Number of Patients with 7-Point improvement in PSP Total Score at Week 12: 50/122
  Number of Patients with 10-Point improvement in PSP Total Score at Week 12: 37/122
  Change from Baseline LS Mean: PSP Total Score (ITT): 6.1
  Change from Baseline LS Mean: PSP domain Disturbing and Aggressive Behaviors: 0.0
  Change from Baseline LS Mean: PSP domain Personal and Social Relationships: −0.3
  Change from Baseline LS Mean: PSP domain Self-Care: −0.3
  Change from Baseline LS Mean: PSP domain Socially Useful Activities: −0.4
  Effect Size (Cohen's d) vs Placebo: PSP Total Score (ITT): 0.27
  Effect Size (Cohen's d) vs Placebo: PSP domain Disturbing and Aggressive Behaviors: −0.07
  Effect Size (Cohen's d) vs Placebo: PSP domain Personal and Social Relationships: 0.00
  Effect Size (Cohen's d) vs Placebo: PSP domain Self-Care: 0.04
  Effect Size (Cohen's d) vs Placebo: PSP domain Socially Useful Activities: 0.18
  Change from Baseline LS Mean: PSP Total Score (mITT): 6.2
  Effect Size (Cohen's d) vs Placebo: PSP Total Score (mITT): 0.29
64 mg, Week 12, ITT
  PSP total score, LS mean difference vs placebo in change from Baseline: 2.2
OL period
  PSP Total score, course in OL period: continued improvement was seen
Placebo to 32 mg group
  Mean change in PSP Total score from Active Baseline: 11.7
Placebo to 64 mg group
  Mean change in PSP Total score from Active Baseline: 11.8
